# From ChEMBL document CHEMBL1201862, “PubChem BioAssay data set” (2004)
#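 Compound exposure: 48 hours, 5 concentrations, 96-well plates. At the GI50, growth is halved.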 Calls of active or inactive are those of the source. No stated cut-off is given here; in the data, active = GI50 up to about 1.1 µM and inactive = higher.
# Tests used:
# Test in all cases: DTP human tumour cell line panel, 48 h
# [1] = tested on: SK-OV-3
# [2] = tested on: T47D
# [3] = tested on: HCC 2998
# [4] = tested on: Malme-3M
# [5] = tested on: 786-0
# [6] = tested on: ACHN
# [7] = tested on: OVCAR-4
# [8] = tested on: UACC-257
# [9] = tested on: OVCAR-5
# [10] = tested on: HCT-116
# [11] = tested on: SK-MEL-2
# [12] = tested on: M14
# [13] = tested on: KM12
# [14] = tested on: NCI-H226
# [15] = tested on: SF-295
# [16] = tested on: LOX IMVI
# [17] = tested on: UO-31
# [18] = tested on: MOLT-4
# [19] = tested on: NCI-H23
# [20] = tested on: HOP-92
Compound,GI50 [1],GI50 [2],GI50 [3],GI50 [4],GI50 [5],GI50 [6],GI50 [7],GI50 [8],GI50 [9],GI50 [10],GI50 [11],GI50 [12],GI50 [13],GI50 [14],GI50 [15],GI50 [16],GI50 [17],GI50 [18],GI50 [19],GI50 [20]
COc1cccc(C(=O)Nc2c3ccccc3nc3ccccc23)c1OC,51.9 µM (inactive),> 100 µM (inactive),> 100 µM (inactive),> 100 µM (inactive),52.2 µM (inactive),45.5 µM (inactive),> 100 µM (inactive),> 100 µM (inactive),> 100 µM (inactive),> 100 µM (inactive),> 100 µM (inactive),> 100 µM (inactive),> 100 µM (inactive),> 100 µM (inactive),39.1 µM (inactive),> 100 µM (inactive),2.96 µM (inactive),> 100 µM (inactive),> 100 µM (inactive),
O=C(O)C1CCCN1Cc1c[nH]c2ccccc12 (stereo not drawn),> 100 µM (inactive),> 100 µM (inactive),,> 100 µM (inactive),> 100 µM (inactive),> 100 µM (inactive),> 100 µM (inactive),> 100 µM (inactive),> 100 µM (inactive),> 100 µM (inactive),> 100 µM (inactive),> 100 µM (inactive),> 100 µM (inactive),> 100 µM (inactive),> 100 µM (inactive),> 100 µM (inactive),> 100 µM (inactive),> 100 µM (inactive),> 100 µM (inactive),> 100 µM (inactive)
O=C1c2cscc2C(=O)C1(O)O,> 100 µM (inactive),18.6 µM (inactive),,23.4 µM (inactive),61.5 µM (inactive),> 100 µM (inactive),25.6 µM (inactive),24.9 µM (inactive),> 100 µM (inactive),21.3 µM (inactive),> 100 µM (inactive),22.2 µM (inactive),> 100 µM (inactive),> 100 µM (inactive),> 100 µM (inactive),> 100 µM (inactive),27.3 µM (inactive),22.5 µM (inactive),22.1 µM (inactive),31.7 µM (inactive)
CCNC1(c2cccc(C)c2)OC(C)(C)c2cccc3cccc1c23 (stereo not drawn),17.7 µM (inactive),26.9 µM (inactive),,16.3 µM (inactive),18.8 µM (inactive),17 µM (inactive),16 µM (inactive),18.8 µM (inactive),19.1 µM (inactive),27 µM (inactive),15.7 µM (inactive),17.8 µM (inactive),21.9 µM (inactive),19.9 µM (inactive),17.9 µM (inactive),17.3 µM (inactive),16.1 µM (inactive),,17.9 µM (inactive),3.83 µM (inactive)
CC1=C2c3ccccc3N(S(=O)(=O)c3ccccc3)[C@H]2[C@H](C(=O)N2C3CC4CC[C@@]3(CS2(=O)=O)C4(C)C)CC1 (stereo partly drawn),22.1 µM (inactive),10.6 µM (inactive),,28.9 µM (inactive),0.41 µM (active),34.3 µM (inactive),64 µM (inactive),33.7 µM (inactive),> 100 µM (inactive),11.7 µM (inactive),,64.4 µM (inactive),49.5 µM (inactive),37.4 µM (inactive),1.71 µM (inactive),23.6 µM (inactive),9.06 µM (inactive),6.38 µM (inactive),40.6 µM (inactive),22.5 µM (inactive)
O=C(O)CCSCc1ccccc1,> 100 µM (inactive),> 100 µM (inactive),> 100 µM (inactive),> 100 µM (inactive),> 100 µM (inactive),> 100 µM (inactive),> 100 µM (inactive),> 100 µM (inactive),> 100 µM (inactive),> 100 µM (inactive),> 100 µM (inactive),> 100 µM (inactive),> 100 µM (inactive),> 100 µM (inactive),> 100 µM (inactive),> 100 µM (inactive),> 100 µM (inactive),> 100 µM (inactive),> 100 µM (inactive),
NC(=O)C(c1ccccc1)N1OC2C(=O)N(Cc3ccccc3)C(=O)C2C1c1cccc(Oc2ccc(Cl)cc2)c1 (stereo not drawn),60.7 µM (inactive),32.1 µM (inactive),,42.9 µM (inactive),21.3 µM (inactive),20.4 µM (inactive),27.8 µM (inactive),36.6 µM (inactive),32.1 µM (inactive),19.4 µM (inactive),22.2 µM (inactive),23.6 µM (inactive),28.3 µM (inactive),26.8 µM (inactive),38.5 µM (inactive),15.7 µM (inactive),2.73 µM (inactive),32.8 µM (inactive),36.2 µM (inactive),33 µM (inactive)
OCCOCCO[P+]1(OCCOCCO)n2c3ccc2C(c2ccccc2)=C2C=CC(=N2)C(c2ccccc2)=c2ccc(n21)=C(c1ccccc1)C1=NC(=C3c2ccccc2)C=C1,0.0859 µM (active),0.04 µM (active),0.0378 µM (active),0.119 µM (active),0.179 µM (active),0.35 µM (active),0.209 µM (active),0.0268 µM (active),0.525 µM (active),0.0836 µM (active),0.0395 µM (active),0.272 µM (active),0.0331 µM (active),0.162 µM (active),0.281 µM (active),0.0989 µM (active),1.86 µM (inactive),0.0267 µM (active),0.105 µM (active),
Cc1ccc(S(=O)(=O)NCCCCC(N)C(=O)O)cc1 (stereo not drawn),> 100 µM (inactive),> 100 µM (inactive),,> 100 µM (inactive),> 100 µM (inactive),> 100 µM (inactive),> 100 µM (inactive),> 100 µM (inactive),> 100 µM (inactive),> 100 µM (inactive),,> 100 µM (inactive),> 100 µM (inactive),> 100 µM (inactive),> 100 µM (inactive),,> 100 µM (inactive),> 100 µM (inactive),> 100 µM (inactive),> 100 µM (inactive)
CC(C)(C)CN1[C@@H]2CCCC[C@H]2N(CC(C)(C)C)P1(=O)Cc1ccccc1,15.1 µM (inactive),10.1 µM (inactive),9.14 µM (inactive),13.5 µM (inactive),15.6 µM (inactive),15.2 µM (inactive),10.4 µM (inactive),12.8 µM (inactive),12.7 µM (inactive),10.2 µM (inactive),16.1 µM (inactive),13.5 µM (inactive),13.1 µM (inactive),12.9 µM (inactive),10.4 µM (inactive),15.7 µM (inactive),13.3 µM (inactive),11.5 µM (inactive),13 µM (inactive),
CC1=NN(C(=O)c2ccc(Cl)cc2)C(=O)/C1=C/c1cccc(O)c1,> 100 µM (inactive),,> 100 µM (inactive),> 100 µM (inactive),> 100 µM (inactive),> 100 µM (inactive),> 100 µM (inactive),> 100 µM (inactive),> 100 µM (inactive),> 100 µM (inactive),> 100 µM (inactive),> 100 µM (inactive),> 100 µM (inactive),> 100 µM (inactive),> 100 µM (inactive),> 100 µM (inactive),> 100 µM (inactive),> 100 µM (inactive),> 100 µM (inactive),> 100 µM (inactive)
O=C(O)c1ccccc1/C=C1\Cc2cc3c(cc2C1=O)CCC3,36.2 µM (inactive),9.23 µM (inactive),27.6 µM (inactive),26.9 µM (inactive),29 µM (inactive),34.4 µM (inactive),28.1 µM (inactive),26.5 µM (inactive),57.1 µM (inactive),27.9 µM (inactive),23.4 µM (inactive),23.5 µM (inactive),19.2 µM (inactive),24 µM (inactive),24 µM (inactive),14.9 µM (inactive),33.9 µM (inactive),17.4 µM (inactive),18.1 µM (inactive),
O=C(Cc1cccs1)N[C@@H]1C(=O)N2C(C(=O)OC(c3ccccc3)c3ccccc3)=C(CO)CS[C@H]12,> 100 µM (inactive),,52.8 µM (inactive),40.7 µM (inactive),> 100 µM (inactive),91.8 µM (inactive),74.3 µM (inactive),> 100 µM (inactive),> 100 µM (inactive),> 100 µM (inactive),> 100 µM (inactive),> 100 µM (inactive),38.1 µM (inactive),0.0283 µM (active),> 100 µM (inactive),> 100 µM (inactive),17.9 µM (inactive),> 100 µM (inactive),46 µM (inactive),> 100 µM (inactive)
c1cc(-c2cn3ccsc3n2)ccn1,> 100 µM (inactive),,> 100 µM (inactive),> 100 µM (inactive),38.4 µM (inactive),> 100 µM (inactive),> 65.8 µM (inactive),> 100 µM (inactive),> 100 µM (inactive),> 75.5 µM (inactive),> 100 µM (inactive),> 100 µM (inactive),> 100 µM (inactive),> 100 µM (inactive),> 100 µM (inactive),> 61 µM (inactive),> 100 µM (inactive),> 100 µM (inactive),> 100 µM (inactive),> 100 µM (inactive)
Cc1ccc(C)n2c1nc1cc3ccccc3cc12,32.4 µM (inactive),11.1 µM (inactive),,50.1 µM (inactive),36.2 µM (inactive),29.6 µM (inactive),,49.2 µM (inactive),74.3 µM (inactive),15.3 µM (inactive),,42.6 µM (inactive),21.1 µM (inactive),36 µM (inactive),42.3 µM (inactive),,14.9 µM (inactive),23.3 µM (inactive),25.2 µM (inactive),8.75 µM (inactive)
